Results taken from US7858635B2 (priority 2005, dated 2010).
Where two headings read alike, the source gives them in different places.

Legend:
M1 muscarinic receptor = target: T1, M1 muscarinic receptor (Homo sapiens, UniProt P11229); assay: Functional mobilization of intracellular calcium (FLIPR, Fluo-3), M1-CHO cells; type: cell-based; details: for Emax: 100% efficacy is the maximum response obtained with the Carbachol control, read-out: M1 Efficacy
T1 construct: expressed in transfected cells; host or cells: CHO cells (M1-CHO, under zeocin and G418 selection)
T1 sequence (P11229 1-460): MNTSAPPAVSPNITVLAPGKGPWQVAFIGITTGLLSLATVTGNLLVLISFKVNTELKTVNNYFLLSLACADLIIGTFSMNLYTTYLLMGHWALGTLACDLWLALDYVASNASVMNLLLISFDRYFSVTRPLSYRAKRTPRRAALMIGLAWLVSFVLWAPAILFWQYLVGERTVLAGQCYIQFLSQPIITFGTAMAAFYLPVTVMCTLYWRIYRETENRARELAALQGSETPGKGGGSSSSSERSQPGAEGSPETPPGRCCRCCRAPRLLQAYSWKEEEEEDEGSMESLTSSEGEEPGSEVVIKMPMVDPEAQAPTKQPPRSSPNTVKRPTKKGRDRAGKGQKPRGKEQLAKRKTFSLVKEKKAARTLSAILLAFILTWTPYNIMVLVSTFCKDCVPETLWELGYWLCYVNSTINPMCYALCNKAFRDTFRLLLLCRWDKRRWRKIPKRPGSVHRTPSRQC
Summary of the method: (§1)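 Intracellular calcium was tracked by fluorescence (488/540 nm) over 60 sec after compound addition to dye-loaded CHO cells expressing the receptor. Inhibitory activity used a 15 min pre-incubation before carbachol at the subtype EC80.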

M4 muscarinic receptor = target: T2, M4 muscarinic receptor (Homo sapiens, UniProt P08173); assay: Functional mobilization of intracellular calcium (FLIPR, Fluo-3), M4-CHO cells; type: cell-based; details: for Emax: 100% efficacy is the maximum response obtained with the Carbachol control, read-out: M4 Efficacy
T2 construct: expressed in transfected cells; host or cells: CHO cells (M4-CHO, under puromycin, zeocin and blasticidin selection)
T2 sequence (P08173 1-479): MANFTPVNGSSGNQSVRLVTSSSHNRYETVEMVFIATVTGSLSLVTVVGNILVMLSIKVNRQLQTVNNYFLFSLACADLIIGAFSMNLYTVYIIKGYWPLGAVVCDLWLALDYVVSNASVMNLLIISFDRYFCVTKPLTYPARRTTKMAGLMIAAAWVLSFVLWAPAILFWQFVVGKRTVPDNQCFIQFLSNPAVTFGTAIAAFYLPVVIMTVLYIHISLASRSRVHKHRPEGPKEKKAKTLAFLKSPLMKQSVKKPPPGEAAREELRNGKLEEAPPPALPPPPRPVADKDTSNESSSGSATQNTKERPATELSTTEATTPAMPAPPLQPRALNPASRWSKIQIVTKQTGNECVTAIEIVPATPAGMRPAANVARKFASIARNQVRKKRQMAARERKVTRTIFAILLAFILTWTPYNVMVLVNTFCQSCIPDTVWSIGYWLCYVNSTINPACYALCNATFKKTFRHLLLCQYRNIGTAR
Summary of the method: as §1

[1] = compound nos. 1-454, M1-CHO cells, calcium mobilization
[2] = compound nos. 1-454, M4-CHO cells, calcium mobilization

SMILES: CC(=O)N1CC2(CCN(C3CCN(C(=O)OCCF)C3)CC2)c2cc(F)ccc21 (stereo not shown) [compound 394]
- M1 Activity (M1 muscarinic receptor; compound nos. 1-454): +++ (activity was measured to be less than or equal to 0.7 μM)
- Emax (M1 muscarinic receptor; compound nos. 1-454): < 65%
- M4 Activity (M4 muscarinic receptor; compound nos. 1-454): ++ (activity was measured to be between 0.1 μM and 4.0 μM)
- Emax (M4 muscarinic receptor; compound nos. 1-454): < 55%

SMILES: Cc1ccc(N2CCC(N3CCC4(CC3)CN(C(=O)N(C)C)c3ccc(F)cc34)CC2)nn1 [compound 462]
- Emax (M1 muscarinic receptor; compound nos. 455-509): 25 to 100%
- M1 Activity (M1 muscarinic receptor; compounds 455-509): + (activity was measured to be greater than or equal to 5.0 μM)
- Emax (M4 muscarinic receptor; compound nos. 455-509): < 25%
- M4 Activity (M4 muscarinic receptor; compounds 455-509): ++ (activity was measured to be between 2.0 μM and 5.0 μM)

SMILES: CC(=O)N[C@H]1CC2(CCN(C3CCOCC3)CC2)c2ccccc21 [compound 206]
- Emax (M1 muscarinic receptor; compound nos. 1-454): 65 to 85%
- M1 Activity (M1 muscarinic receptor; [1]): +++ (activity was measured to be less than or equal to 0.7 μM)
- Emax (M4 muscarinic receptor; compound nos. 1-454): < 55%
- M4 Activity (M4 muscarinic receptor; [2]): + (activity was measured to be greater than or equal to 4.0 μM)

SMILES: COC(=O)N1CC2(CCN(C3CC4CCC(C3)N4C(=O)OC(C)C)CC2)c2cc(F)ccc21 (stereo not shown) [compound 97]
- Emax (M1 muscarinic receptor; compound nos. 1-454): 65 to 85%
- M1 Activity (M1 muscarinic receptor; [1]): +++ (activity was measured to be less than or equal to 0.7 μM)
- Emax (M4 muscarinic receptor; compound nos. 1-454): < 55%
- M4 Activity (M4 muscarinic receptor; [2]): + (activity was measured to be greater than or equal to 4.0 μM)

SMILES: CCOC(=O)N1CCC(CN2CCC3(CC2)C(=O)N(C)c2ccccc23)CC1 [compound 327]
- Emax (M1 muscarinic receptor; compound nos. 1-454): < 65%
- M1 Activity (M1 muscarinic receptor; [1]): + (activity was measured to be greater than or equal to 3.0 μM)
- Emax (M4 muscarinic receptor; compound nos. 1-454): < 55%
- M4 Activity (M4 muscarinic receptor; [2]): + (activity was measured to be greater than or equal to 4.0 μM)

SMILES: CC(=O)N1CC2(CCN(CC3CCN(C(=O)O[C@@H]4CCOC4)CC3)CC2)c2cc(C)ccc21 [compound 403]
- M1 Activity (M1 muscarinic receptor; compound nos. 1-454): +++ (activity was measured to be less than or equal to 0.7 μM)
- Emax (M1 muscarinic receptor; compound nos. 1-454): 65 to 85%
- M4 Activity (M4 muscarinic receptor; compound nos. 1-454): + (activity was measured to be greater than or equal to 4.0 μM)
- Emax (M4 muscarinic receptor; compound nos. 1-454): < 55%

SMILES: COCCOC(=O)N1C2CCC1CC(N1CCC3(CC1)CN(C(=O)O[C@@H]1CCOC1)c1ccc(F)cc13)C2 (stereo partly shown) [compound 216]
- Emax (M1 muscarinic receptor; compound nos. 1-454): > 85%
- M1 Activity (M1 muscarinic receptor; [1]): +++ (activity was measured to be less than or equal to 0.7 μM)
- Emax (M4 muscarinic receptor; compound nos. 1-454): < 55%
- M4 Activity (M4 muscarinic receptor; [2]): + (activity was measured to be greater than or equal to 4.0 μM)

SMILES: COCCOC(=O)N1CC2(CCN(C3CC4CCC(C3)N4C(=O)OC3CCC3)CC2)c2cc(F)ccc21 (stereo not shown) [compound 195]
- Emax (M1 muscarinic receptor; compound nos. 1-454): < 65%
- M1 Activity (M1 muscarinic receptor; [1]): ++ (activity was measured to be between 0.7 μM and 3.0 μM)
- Emax (M4 muscarinic receptor; compound nos. 1-454): < 55%
- M4 Activity (M4 muscarinic receptor; [2]): + (activity was measured to be greater than or equal to 4.0 μM)

SMILES: CCOC(=O)N1C2CCC1CC(N1CCC3(CC1)CN(C(=O)Nc1ccc(F)cc1)c1ccc(F)cc13)C2 (stereo not shown) [compound 197]
- Emax (M1 muscarinic receptor; compound nos. 1-454): < 65%
- M1 Activity (M1 muscarinic receptor; [1]): ++ (activity was measured to be between 0.7 μM and 3.0 μM)
- Emax (M4 muscarinic receptor; compound nos. 1-454): < 55%
- M4 Activity (M4 muscarinic receptor; [2]): + (activity was measured to be greater than or equal to 4.0 μM)

SMILES: COCCOC(=O)N1C2CCC1CC(N1CCC3(CC1)CN(C(C)=O)c1ccc(F)cc13)C2 (stereo not shown) [compound 76]
- Emax (M1 muscarinic receptor; compound nos. 1-454): 65 to 85%
- M1 Activity (M1 muscarinic receptor; [1]): +++ (activity was measured to be less than or equal to 0.7 μM)
- Emax (M4 muscarinic receptor; compound nos. 1-454): 55 to 70%
- M4 Activity (M4 muscarinic receptor; [2]): ++ (activity was measured to be between 0.1 μM and 4.0 μM)

SMILES: CCOC(=O)N1CCC(N2CCC3(CC2)CN(C(C)=O)c2ccc(-c4cccc(F)c4)cc23)CC1 [compound 84]
- Emax (M1 muscarinic receptor; compound nos. 1-454): 65 to 85%
- M1 Activity (M1 muscarinic receptor; [1]): +++ (activity was measured to be less than or equal to 0.7 μM)
- Emax (M4 muscarinic receptor; compound nos. 1-454): 55 to 70%
- M4 Activity (M4 muscarinic receptor; [2]): ++ (activity was measured to be between 0.1 μM and 4.0 μM)

SMILES: Cc1cc(C(=O)N2CC3(CCN(C4CC5CCC(C4)N5C(=O)OC(C)C)CC3)c3cc(F)ccc32)nn1C (stereo not shown) [compound 24]
- Emax (M1 muscarinic receptor; compound nos. 1-454): < 65%
- M1 Activity (M1 muscarinic receptor; [1]): ++ (activity was measured to be between 0.7 μM and 3.0 μM)
- Emax (M4 muscarinic receptor; compound nos. 1-454): < 55%
- M4 Activity (M4 muscarinic receptor; [2]): + (activity was measured to be greater than or equal to 4.0 μM)

SMILES: Cc1ccc2c(c1)C1(CCN(C3CC4CCC3C4)CC1)CN2C(=O)c1cc(C)on1 (stereo not shown) [compound 208]
- Emax (M1 muscarinic receptor; compound nos. 1-454): < 65%
- M1 Activity (M1 muscarinic receptor; [1]): ++ (activity was measured to be between 0.7 μM and 3.0 μM)
- Emax (M4 muscarinic receptor; compound nos. 1-454): < 55%
- M4 Activity (M4 muscarinic receptor; [2]): + (activity was measured to be greater than or equal to 4.0 μM)
